From ChEMBL document CHEMBL3882724 (2013)

What was measured:
[1] = target: T1, CYP21 (steroid 21-hydroxylase) (Homo sapiens, UniProt P08686); assay: Inhibition of human CYP21 transfected in HEK293 cells assessed as decrease in conversion of progesterone to 11-deoxycorticosterone preincubated for 5 hrs followed by progesterone addition measured after 20 hrs by ELISA; type: cell-based; design: concentration or dose not given beside the values; conditions: HEK293 cells transfected with human CYP21, probe progesterone
T1 sequence (P08686 whole entry): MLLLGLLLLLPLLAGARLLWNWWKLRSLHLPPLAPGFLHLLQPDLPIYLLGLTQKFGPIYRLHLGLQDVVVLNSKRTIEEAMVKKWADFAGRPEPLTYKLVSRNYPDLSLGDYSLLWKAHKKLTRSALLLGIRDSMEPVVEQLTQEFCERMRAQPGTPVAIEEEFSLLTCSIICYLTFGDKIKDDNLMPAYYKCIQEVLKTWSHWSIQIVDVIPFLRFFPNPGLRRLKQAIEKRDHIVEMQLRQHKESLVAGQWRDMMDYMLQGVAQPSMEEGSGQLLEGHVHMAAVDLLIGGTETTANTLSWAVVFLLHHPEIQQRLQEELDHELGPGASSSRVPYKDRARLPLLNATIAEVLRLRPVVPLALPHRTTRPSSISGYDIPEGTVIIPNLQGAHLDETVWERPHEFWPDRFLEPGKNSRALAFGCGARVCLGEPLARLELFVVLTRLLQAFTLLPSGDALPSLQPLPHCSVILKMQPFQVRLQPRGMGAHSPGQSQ

CYP11B = target: T2, CYP11B (Rattus norvegicus, UniProt P15393+P30099); assay: Inhibition of Sprague-Dawley rat adrenal mitochondrial CYP11B assessed as decrease in conversion of 11-deoxycortisol to cortisol at 100 nM incubated for 60 mins by ELISA relative to control; type: protein assay; conditions: adrenal mitochondria, probe 11-deoxycortisol
T2 sequence (P30099 whole entry): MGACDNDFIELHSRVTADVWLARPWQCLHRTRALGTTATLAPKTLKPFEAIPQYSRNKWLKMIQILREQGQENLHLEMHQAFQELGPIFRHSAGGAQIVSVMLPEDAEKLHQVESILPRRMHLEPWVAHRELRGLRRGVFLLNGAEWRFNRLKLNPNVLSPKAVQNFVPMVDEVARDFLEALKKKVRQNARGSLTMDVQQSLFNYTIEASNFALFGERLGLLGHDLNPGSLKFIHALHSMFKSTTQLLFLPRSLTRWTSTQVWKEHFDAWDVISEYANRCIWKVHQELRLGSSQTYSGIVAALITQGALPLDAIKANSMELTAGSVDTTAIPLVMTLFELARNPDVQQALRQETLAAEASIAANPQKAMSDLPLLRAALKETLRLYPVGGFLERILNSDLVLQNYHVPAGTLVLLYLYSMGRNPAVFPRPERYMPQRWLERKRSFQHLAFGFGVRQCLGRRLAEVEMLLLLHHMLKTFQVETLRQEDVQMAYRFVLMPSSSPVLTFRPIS
T2 sequence (P15393 whole entry): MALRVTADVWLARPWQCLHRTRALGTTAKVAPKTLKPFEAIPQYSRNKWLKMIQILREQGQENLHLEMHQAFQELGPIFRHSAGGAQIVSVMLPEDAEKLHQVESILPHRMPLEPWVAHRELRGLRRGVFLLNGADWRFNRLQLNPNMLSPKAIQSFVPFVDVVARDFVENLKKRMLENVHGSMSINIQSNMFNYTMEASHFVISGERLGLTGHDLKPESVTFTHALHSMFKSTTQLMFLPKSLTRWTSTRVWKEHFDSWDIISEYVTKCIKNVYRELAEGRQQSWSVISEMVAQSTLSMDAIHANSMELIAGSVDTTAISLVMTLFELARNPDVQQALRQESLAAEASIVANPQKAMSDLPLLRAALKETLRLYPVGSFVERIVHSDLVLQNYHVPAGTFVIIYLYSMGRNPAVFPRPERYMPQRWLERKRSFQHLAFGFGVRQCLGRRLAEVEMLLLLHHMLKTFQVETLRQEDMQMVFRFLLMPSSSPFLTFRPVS

[2] = target: T3, Steroid 17-alpha-hydroxylase/17,20 lyase (Homo sapiens, UniProt P05093); assay: Inhibition of CYP17 in human testicular microsomes using 17alpha-hydroxypregnenolone as substrate assessed as decrease in DHEA levels after 90 mins by ELISA; design: species or system Testis
T3 sequence (P05093 whole entry): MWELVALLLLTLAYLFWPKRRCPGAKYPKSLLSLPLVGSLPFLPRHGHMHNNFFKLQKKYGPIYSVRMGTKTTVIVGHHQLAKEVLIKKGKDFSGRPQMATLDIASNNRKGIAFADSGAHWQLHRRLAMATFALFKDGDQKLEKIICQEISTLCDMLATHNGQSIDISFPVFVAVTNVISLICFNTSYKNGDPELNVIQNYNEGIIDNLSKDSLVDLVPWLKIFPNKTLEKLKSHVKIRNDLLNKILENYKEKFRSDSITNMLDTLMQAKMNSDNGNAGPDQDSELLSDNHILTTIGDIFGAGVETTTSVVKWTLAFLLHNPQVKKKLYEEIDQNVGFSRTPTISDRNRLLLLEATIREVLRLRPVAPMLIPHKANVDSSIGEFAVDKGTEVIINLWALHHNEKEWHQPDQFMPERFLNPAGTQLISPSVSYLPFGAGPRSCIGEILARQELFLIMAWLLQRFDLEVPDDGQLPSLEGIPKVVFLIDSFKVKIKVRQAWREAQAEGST

[3] = target: T3, Steroid 17-alpha-hydroxylase/17,20 lyase; assay: Inhibition of CYP17 in human testicular microsomes using 17alpha-hydroxypregnenolone as substrate assessed as decrease in DHEA levels at 10 nM after 90 mins by ELISA relative to control; design: species or system Testis; conditions: 1.5 h
[4] = Half life in rat liver microsomes at 1 uM by LC-MS/MS analysis
[5] = Half life in human liver microsomes at 1 uM by LC-MS/MS analysis

| Structure (SMILES) | inhibition at 20 h [1] [%] | inhibition at 1 h, 0.1 µM (CYP11B) [%] | IC50 [2] [nM] | inhibition at 0.01 µM [3] [%] | half-life at 1 µM [4] [min] | half-life at 1 µM [5] [min] |
| --- | --- | --- | --- | --- | --- | --- |
| CN1C(=O)C[C@@]2(C)C1=CC[C@@H]1[C@@H]2CC[C@]2(C)C(n3ccnc3)=CC[C@@H]12 | 10 to 50 | ≥ 50 |  |  |  |  |
| COC(=O)N[C@@H]1CC[C@@]2(C)C(=CC[C@@H]3[C@@H]2CC[C@]2(C)C(n4ccnc4)=CC[C@@H]32)C1 | ≥ 50 | < 32 | ≤ 11 |  |  |  |
| C[C@]12CC[C@H]3[C@@H](CC=C4C[C@H](NC(=O)C5CC5)CC[C@@]43C)C1=CC=C2n1ccnc1 | 10 to 50 | ≥ 50 |  |  |  |  |
| CC(=O)O[C@H]1CC[C@@]2(C)C(=CC[C@H]3C4=CC=C(c5cccnc5)[C@@]4(C)CC[C@@H]32)C1 |  | ≥ 50 |  | 1 to 50 |  |  |
| CN1C(=O)CC[C@@]2(C)C1=CC[C@@H]1[C@@H]2CC[C@]2(C)C(n3ccnc3)=CC[C@@H]12 |  | ≥ 50 |  | 50 to 80 |  |  |
| CN1C(=O)C[C@@]2(C)C1=CC[C@@H]1[C@@H]2CC[C@]2(C)C(c3cccnc3)=CC[C@@H]12 | ≥ 50 | ≥ 50 | ≤ 11 |  |  |  |
| CN1C(=O)CC[C@@]2(C)C1=CC[C@@H]1[C@@H]2CC[C@]2(C)C(n3cncc3C#N)=CC[C@@H]12 | < 10 | < 32 |  |  |  |  |
| CCOc1cncc(C2=CC[C@H]3[C@@H]4CC=C5N(C)C(=O)C[C@]5(C)[C@H]4CC[C@]23C)c1 | 10 to 50 | ≥ 50 |  |  |  |  |
| CN1C(=O)CC[C@@]2(C)C1=CC[C@@H]1[C@@H]2CC[C@]2(C)C(c3cncc(F)c3)=CC[C@@H]12 | 10 to 50 | ≥ 50 |  |  |  |  |
| COc1cncc(C2=CC[C@H]3[C@@H]4CCC5=CC(=O)N(C)CC[C@]5(C)[C@H]4CC[C@]23C)c1 |  | < 32 | ≤ 11 | 50 to 80 | 1 to 10 | 1 to 10 |
| COc1cncc(C2=CC[C@H]3[C@@H]4CC=C5N(C)C(=O)C[C@]5(C)[C@H]4CC[C@]23C)c1 | ≥ 50 | < 32 | ≤ 11 |  |  | 1 to 50 |
| C[C@]12CCCCC1C(=O)C[C@@H]1[C@@H]2CC[C@]2(C)C(n3ccnc3)=CC[C@@H]12 (stereo not given in full) |  | < 32 | ≤ 11 | ≥ 80 |  |  |
| C[C@]12CC[C@@H](NC(=O)C3CC3)CC1=CC[C@@H]1[C@@H]2CC[C@]2(C)C(n3ccnc3)=CC[C@@H]12 | ≥ 50 | ≥ 50 | ≤ 11 |  |  | 1 to 50 |
| C[C@]12CC[C@H](O)CC1=CC[C@@H]1[C@@H]2CC[C@]2(C)C(n3cncc3C#N)=CC[C@@H]12 | 10 to 50 | ≥ 50 |  |  |  |  |
| CCC(=O)N1CCC[C@@]2(C)C(CC[C@@H]3[C@@H]2CC[C@]2(C)C(c4cccnc4)=CC[C@@H]32)C1 (stereo not given in full) | 10 to 50 | ≥ 50 | ≤ 11 |  |  |  |
| CCC(=O)N1CCC2CC[C@@H]3[C@H](CC[C@]4(C)C(c5cccnc5)=CC[C@@H]34)[C@@]2(C)CC1 (stereo not given in full) | 10 to 50 | < 32 | ≤ 11 |  |  |  |
| CCCC(=O)N1CCC2CC[C@@H]3[C@H](CC[C@]4(C)C(n5ccnc5)=CC[C@@H]34)[C@@]2(C)CC1 (stereo not given in full) | ≥ 50 | < 32 | ≤ 11 |  |  |  |
| COc1cncc(C2=CC[C@H]3[C@@H]4CC=C5N(C)C(=O)CCC[C@]5(C)[C@H]4CC[C@]23C)c1 |  | ≥ 50 |  | ≥ 80 |  | 1 to 50 |
| CN1CC[C@@]2(C)C(=CC1=O)CC[C@@H]1[C@@H]2CC[C@]2(C)C(n3ccnc3)=CC[C@@H]12 |  | ≥ 50 | ≤ 11 | ≥ 80 | 10 to 60 | 1 to 50 |
| CN1C(=O)CCC[C@@]2(C)C1=CC[C@@H]1[C@@H]2CC[C@]2(C)C(c3cccnc3)=CC[C@@H]12 |  | ≥ 50 | ≤ 11 | ≥ 80 |  | 1 to 50 |
| Cc1cncc(C2=CC[C@H]3[C@@H]4CC=C5N(C)C(=O)CCC[C@]5(C)[C@H]4CC[C@]23C)c1 |  | ≥ 50 |  | 50 to 80 |  |  |
| CN1CC=C2CC[C@@H]3[C@H](CC[C@]4(C)C(n5ccnc5)=CC[C@@H]34)[C@@]2(C)CC1 |  | < 32 |  | 1 to 50 |  |  |
| CC(=O)N[C@@H]1CC[C@@]2(C)C(=CC[C@H]3C4=CC=C(n5ccnc5)[C@@]4(C)CC[C@@H]32)C1 | 10 to 50 | < 32 |  |  |  |  |
| C[C@]12CCCN(S(C)(=O)=O)CC1CC[C@@H]1[C@@H]2CC[C@]2(C)C(n3ccnc3)=CC[C@@H]12 (stereo not given in full) |  | ≥ 50 |  |  |  |  |
| CC(=O)N1CCC[C@@]2(C)[C@@H](CC[C@@H]3[C@@H]2CC[C@]2(C)C(n4ccnc4)=CC[C@@H]32)C1 | 10 to 50 | ≥ 50 |  |  |  |  |
| COc1cncc(C2CC[C@H]3[C@@H]4CCC5=CC(=O)NCC[C@]5(C)[C@H]4CC[C@]23C)c1 (stereo not given in full) |  | < 32 | ≤ 11 | ≥ 80 | 10 to 60 | 10 to 60 |
| Cc1cncc(C2=CC[C@H]3[C@@H]4CC=C5N(C)C(=O)C[C@]5(C)[C@H]4CC[C@]23C)c1 | 10 to 50 | < 32 |  |  |  |  |
